From US20240327459A1, “PEPTIDE FRAGMENTS FOR TREATMENT OF DIABETES” (Follicum AB, priority 2018, published 2024)
Entries after “also recorded” stand apart in the source; their conditions may differ.

Tests used:
INS-1 β-cells = assay: Insulin secretion from INS-1 cells (Examples 4 and 6); assay type: cell-based, rat; conditions: Example 6, 6 μM peptide, KRB buffer, 60 min, vs unstimulated control cells
Description: To investigate the stimulatory effect of FOL-005 on insulin secretion, INS-1 β-cells were used in the following experiments. Cells were seeded overnight in cRPMI and then washed with PBS before pre-incubation for 60 min at 37° C. in Krebs-Ringer bicarbonate buffer (KRB), pH 7.4, supplemented with 10 mM HEPES, 0.1% bovine serum albumin. After pre-incubation, the buffer was changed and the INS-1 cells were incubated at different test conditions (0 mM, 5 mM or 20 mM glucose) and stimulated with peptide FOL-005 or FOL-015 (SEQ ID NO: 158) or left untreated during 60 min at 37° C. Immediately after incubation, an aliquot of the buffer was removed and frozen for subsequent assay of insulin with an insulin radioimmunoassay kit.
INS-1 β-cells were used to investigate the stimulatory effect of FOL-014 on insulin secretion. Cells were seeded overnight and then washed with PBS before pre-incubation for 60 min at 37° C. in Krebs-Ringer bicarbonate buffer (KRB), pH 7.4, supplemented with 10 mM HEPES, 0.1% bovine serum albumin. After pre-incubation, the buffer was changed and the INS-1 cells were incubated in new KRB buffer supplemented with 10 mM HEPES, 0.1% bovine serum albumin and stimulated with peptide FOL-014 or left untreated during 60 min at 37° C. Immediately after incubation, an aliquot of the buffer was removed and frozen for subsequent assay of insulin.

isolated mouse islets = assay: Insulin and glucagon secretion from isolated mouse islets (Example 12); assay type: cell-based
Description: Twelve-week-old male C57/bl6 mice were euthanized with isoflurane and cervical dislocation. After clamping the hepatic ducts, 3 ml of 0.9 U/ml collagenase P was injected into the bile duct to inflate the pancreas. The pancreas was then removed and digested for 19 min at 37° C. The samples were vigorously shaken to disrupt the tissue. The digest was quickly transferred into ice cold Hank's Balanced Salts Solution with Ca^2+ and Mg^2+. The suspension was allowed to sit for 8 min to allow the islet to sink, and the islets were washed in the same manner four times. The islets were then handpicked and sorted according to size.
Freshly isolated islets were seeded in groups of 5 in a 96-well plate and preincubated for 1 h at 37° C. in a Krebs-Ringer bicarbonate buffer (pH 7.4). The islets were incubated for 1 h at 37° C. in Krebs-Ringer buffered solution supplemented with 0.6 or 6 μM FOL-014 or 100 nM GLP-1 or left unsupplemented for control. Immediately after incubation, the medium was removed for assays of insulin and glucagon using Mercodia's ELISA kits. The effect of FOL-014 on insulin (FIGS. 8A and B) and glucagon (FIGS. 8C and D) secretion from isolated mouse islets was measured in the presence of low glucose (2.8 mM; FIGS. 8A and C) or high glucose (16.7 mM; FIGS. 8B and D) concentrations.

wild type C57bl/6 mice = assay: Intraperitoneal glucose tolerance test (IPGTT); assay type: in vivo, mouse; conditions: 15 min before 2 g glucose/kg ip, vs saline control
Description: Whole blood was collected for glucose and insulin measurements from 10-week-old wild type maleC57bl/6 mice. After a 4 hour fast, the mice were divided into three groups and given an intraperitoneal injection (ip) of either saline, 30 nmol/kg peptide (FIG. 9A) or 200 nmol/kg peptide (FIG. 9B). 15 min after the FOL-014 or saline (control) injections, the mice were administered 2 g of glucose/kg ip. Blood glucose concentrations were measured at 5, 15, 30, 45 and 60 minutes after the glucose injection. Statistical calculations were performed using student's t-test. […] In addition, the difference was significant at 15, 30 and 45 minutes.

BB lyp/lyp rats = assay: Onset of type 1 diabetes in BB lyp/lyp rats; assay type: in vivo, rat; conditions: 100 nmol/kg subcutaneously 3 times/week from day 40, vs placebo
Description: BB lyp/lyp rats were randomized for placebo (sodium chloride, 9 mg/ml) or FOL-014 treatment 3 times/week from day 40 until onset of type 1 diabetes, defined as plasma glucose levels ≥11.1 mM. The dose of 100 nmol/kg FOL-014 peptide in saline or placebo (saline) was administered subcutaneously and the animals were terminated immediately upon exceeding critical plasma glucose levels. The difference between FOL-014 treated animals and animals receiving placebo treatment was significant both when expressed as average age for onset of type 1 diabetes (FIG. 10A) and when described as percentage of animals developing type 1 diabetes per day (FIG. 10B).

db/db mice = assay: HbA1c in db/db mice after 4 weeks of dosing; assay type: in vivo, mouse; conditions: 100 nmol/kg subcutaneously, 5 days per week for 4 weeks, vs PBS control
Description: To investigate the long-term effect of FOL-014 and FOL-056 in diabetic mice, db/db mice were dosed with 100 nmol/kg peptide subcutaneously, 5 days per week for 4 weeks. Control mice were injected with PBS. After 4 weeks of treatment the mice were terminated and 25 μl whole blood was immediately frozen for subsequent HbA1c analysis. (FIG. 21).

[1] = low glucose (2.8 mM), FOL-014 0.6 or 6 μM

Sequence: KPLAEIDSIELSYGIK (MISC_FEATURE - peptide, FOL-014)
- insulin secretion (INS-1 β-cells): secreted more insulin compared to unstimulated control cells
- insulin secretion (isolated mouse islets; high glucose (16.7 mM), 600 nM): significantly increased insulin secretion
- insulin secretion (isolated mouse islets; high glucose (16.7 mM), 6 μM): but not 6 μM FOL-014, significantly increased insulin secretion
- glucagon secretion (isolated mouse islets; high glucose (16.7 mM), both concentrations (0.6 and 6 μM)): efficiently reduced glucagon secretion
- glucagon secretion (isolated mouse islets; [1]): reduced glucagon secretion as compared with control and GLP-1
- insulin secretion (isolated mouse islets; [1]): did not increase insulin secretion
- plasma glucose levels (wild type C57bl/6 mice; 30 nmol/kg ip): lowered the plasma glucose levels with a significant effect at 45 minutes after the glucose injection
- plasma glucose levels (wild type C57bl/6 mice; 200 nmol/kg ip): significantly lowered the plasma glucose levels as compared to the control when measured as area under the curve; also recorded: significantly lowered the plasma glucose levels as compared to the control at 15 minutes, 30 minutes and 45 minutes
- onset of type 1 diabetes (BB lyp/lyp rats): significantly delayed the onset of type-1 diabetes; also recorded: significant delay in the onset of diabetes
- HbA1c (db/db mice): reduce the HbA1c in db/db mice as compared with the untreated control group; also recorded: significantly lower HbA1c
